Data published in patent US20240124434A1, “ATF6 INHIBITORS AND USES THEREOF” (Altos Labs, Inc., priority 2018, published 2024).
Values after ≈ are worked out from the molar mass of the structure shown. Read-outs that look alike come from different tables or passages of the source. Each block holds one compound with its values, some of them ahead of it.

How the values were obtained:
[1] = Kinetic solubility (nephelometry); assay type: physicochemical; details: aqueous buffer, kinetic from dmso stock; PBS pH 7.4, 1% DMSO, 1 hour at 37° C., light scattering at 625 nm
Method: Concentration (μM) was then calculated by segmental regression. Amiodarone (#A8423 Aldrich) was used as positive control.

[2] = In vitro microsomal stability, mouse liver microsomes; assay type: in vitro ADME; details: for half-life at 1 μM / half-life at […], 1 µM: mouse, read-out: T1/2 @ mLM; for Rem. @ mLM (%): remaining fraction after 30 min, 1 μM compound, 0.5 mg/mL mouse liver microsomes, 1 mM NADPH
Method: (§1) Compounds were incubated at a final concentration of 1 μM with 0.5 mg/mL human liver microsomes (hLM) (#HMMCPL; Thermo), mouse liver microsomes (mLM) (#MSMCPL; Thermo) or rat liver microsomes (rLM) (#RTMCPL; Thermo) and 1 mM reduced dihydronicotinamide-adenine dinucleotide phosphate (NADPH) (#N1630; Sigma) in 100 mM phosphate buffer (pH 7.4) at 37° C. The reactions were terminated at 0, 5, 15 and 30 min by the addition of cold acetonitrile containing 50 ng/mL propranolol as an internal standard. […] Verapamil hydrochloride (#V4369 Aldrich) was used as a positive control in all studies.

[3] = In vitro microsomal stability, human liver microsomes; assay type: in vitro ADME; details: for half-life at 1 μM: human, read-out: T1/2 @ hLM; for Rem. @ hLM (%): remaining fraction after 30 min, 1 μM compound, 0.5 mg/mL human liver microsomes, 1 mM NADPH
Method: as §1

[4] = tested on: ATF6; experiment: ERSE ATF6-luciferase reporter assay (thapsigargin-induced ER stress); assay type: cell-based, human; details: thapsigargin-induced ER stress, U2-OS ATF6 luc reporter cells; for inhibition at 1 µM: 8 h; for inhibition at 1 µM / Inh. ATF6-Luc @ 1 μM [%]: 8 hr
[5] = In vitro microsomal stability, rat liver microsomes; assay type: in vitro ADME; details: for Rem. @ rLM (%): remaining fraction after 30 min, 1 μM compound, 0.5 mg/mL rat liver microsomes, 1 mM NADPH
Method: as §1

[6] = pH 7.4, intrinsic clearance, mouse liver microsomes, read-out: Clint @ mLM
[7] = pH 7.4, intrinsic clearance, human liver microsomes, read-out: Clint @ hLM
[8] = Homo sapiens, U2OS, 1 μM test compound, read-out: Inh. ATF6-Luc @ 1 μM [%]
[9] = Homo sapiens, U2OS, dose-response 30 μM to 1 nM, read-out: IC50 ATF6-Luc reporter
[10] = pH 7.4, intrinsic clearance, rat liver microsomes, read-out: Clint @ rLM
[11] = rat, rat liver microsomes, pH 7.4, read-out: T1/2 @ rLM
[12] = dose-response 30 μM to 1 nM, read-out: IC50 ATF6-Luc reporter

Compound: CCC(c1ccc(C(F)(F)F)cc1C(F)(F)F)n1cc(NC(=O)c2cc(-c3ccccn3)on2)cn1 (stereo not drawn) [Compound 1, N-(1-(1-(2,4-bis(trifluoromethyl)phenyl)propyl)-1H-pyrazol-4-yl)-5-(pyridin-2-yl)isoxazole-3-carboxamide]
solubility kinetic at 1 h [1]: 2.7 µM (≈ 1.38 µg/mL)
half-life at 1 μM ([2]; mouse liver microsomes, pH 7.4): 35.1 min
microsomal CLint at 1 μM [2, 6]: 39.5 µL/min/mg
Rem. @ mLM (%) [2]: 54.8%
half-life at 1 μM ([3]; human liver microsomes, pH 7.4): 67.7 min
microsomal CLint at 1 μM [3, 7]: 20.5 µL/min/mg
Rem. @ hLM (%) [3]: 71.4%
inhibition at 1 µM [4, 8]: 25 to 50%
IC50 [4, 9]: < 1 µM
microsomal CLint at 1 μM [5, 10]: 42.7 µL/min/mg
half-life at 1 μM [5, 11]: 32.4 min
Rem. @ rLM (%) [5]: 51.8%

Compound: CC(c1ccc(C(F)(F)F)cc1C(F)(F)F)n1cc(NC(=O)c2cc(-c3cccs3)on2)cn1 (stereo not drawn) [Compound 9, N-(1-(1-(2,4-bis(trifluoromethyl)phenyl)-ethyl)-1H-pyrazol-4-yl)-5-(thiophen-2-yl)isoxazole-3-carboxamide]
solubility kinetic at 1 h [1]: 8.9 µM (≈ 4.45 µg/mL)
inhibition at 1 µM [4, 8]: < 25%
IC50 [4, 9]: 1 to 10 µM

Compound: CC(c1ccc(C(F)(F)F)cc1C(F)(F)F)n1cc(NC(=O)c2cc(-c3ccco3)on2)cn1 (stereo not drawn) [Compound 12, N-(1-{1-[2,4-bis(trifluoromethyl)phenyl]ethyl}-1H-pyrazol-4-yl)-5-(furan-2-yl) isoxazole-3-carboxamide]
half-life at […], 1 µM ([2]; mouse liver microsomes, pH 7.4): 4.6 min
microsomal CLint at […], 1 µM [2, 6]: 302 µL/min/mg
Rem. @ mLM (%) [2]: 1.02%
half-life at 1 μM ([3]; human liver microsomes, pH 7.4): 29.9 min
microsomal CLint at […], 1 µM [3, 7]: 46 µL/min/mg
Rem. @ hLM (%) [3]: 46.1%
inhibition at 1 µM [4, 8]: > 50%
IC50 [4, 9]: < 1 µM
microsomal CLint at […], 1 µM [5, 10]: 291 µL/min/mg
half-life at […], 1 µM [5, 11]: 4.8 min
Rem. @ rLM (%) [5]: 0.77%

Compound: O=C(Nc1cnn(Cc2ccc(C(F)(F)F)cc2C(F)(F)F)c1)c1cc(-c2cccs2)on1 [Compound 14, N-(1-(2,4-bis(trifluoromethyl)benzyl)-1H-pyrazol-4-yl)-5-(thiophen-2-yl)isoxazole-3-carboxamide]
solubility kinetic at 1 h [1]: 35.2 µM (≈ 17.1 µg/mL)
half-life at 1 μM ([2]; mouse liver microsomes, pH 7.4): 7.4 min
microsomal CLint at […], 1 µM [2, 6]: 187 µL/min/mg
Rem. @ mLM (%) [2]: 5.62%
half-life at 1 μM ([3]; human liver microsomes, pH 7.4): 32.1 min
microsomal CLint at […], 1 µM [3, 7]: 43 µL/min/mg
Rem. @ hLM (%) [3]: 50.1%
inhibition at 1 µM [4, 8]: 25 to 50%
IC50 [4, 9]: < 1 µM
microsomal CLint at […], 1 µM [5, 10]: 314 µL/min/mg
half-life at […], 1 µM [5, 11]: 4.4 min
Rem. @ rLM (%) [5]: 0.85%

Compound: O=C(Nc1cnn(C2CCc3ccccc32)c1)c1cc(-c2ccco2)on1 (stereo not drawn) [Compound 19, N-(1-(2,3-dihydro-1H-inden-1-yl)-1H-pyrazol-4-yl)-5-(furan-2-yl) isoxazole-3-carboxamide]
solubility kinetic at 1 h [1]: 9.37 µM (≈ 3.38 µg/mL)
inhibition at 1 µM [4, 8]: < 25%
IC50 [4, 9]: > 10 µM

Compound: Cc1ccc(-c2cc(C(=O)Nc3cnn(Cc4ccc(C(F)(F)F)cc4C(F)(F)F)c3)no2)o1 [Compound 22, N-(1-(2,4-bis(trifluoromethyl)benzyl)-1H-pyrazol-4-yl)-5-(5-methylfuran-2-yl)isoxazole-3-carboxamide]
half-life at […], 1 µM ([2]; mouse liver microsomes, pH 7.4): 6.1 min
microsomal CLint at […], 1 µM [2, 6]: 228 µL/min/mg
Rem. @ mLM (%) [2]: 3.3%
half-life at 1 μM ([3]; human liver microsomes, pH 7.4): 6.5 min
microsomal CLint at […], 1 µM [3, 7]: 212 µL/min/mg
Rem. @ hLM (%) [3]: 3.7%
inhibition at 1 µM [4, 8]: < 25%
IC50 [4, 9]: 1 to 10 µM
microsomal CLint at […], 1 µM [5, 10]: 204 µL/min/mg
half-life at […], 1 µM [5, 11]: 6.8 min
Rem. @ rLM (%) [5]: 4.5%

Compound: O=C(Nc1cnn(C2CCc3ccccc32)c1)c1cc(-c2ccccn2)on1 (stereo not drawn) [Compound 143, N-(1-(2,3-dihydro-1H-inden-1-yl)-1H-pyrazol-4-yl)-5-(pyridin-2-yl)isoxazole-3-carboxamide]
inhibition at 1 µM [4, 8]: < 25%
IC50 [4, 9]: > 10 µM

Compound: O=C(Nc1cnn(C2CCc3ccccc32)c1)c1nnc(-c2ccco2)s1 (stereo not drawn) [Compound 144, N-(1-(2,3-dihydro-1H-inden-1-yl)-1H-pyrazol-4-yl)-5-(furan-2-yl)-1,3,4-thiadiazole-2-carboxamide]
inhibition at 1 µM [4, 8]: < 25%
IC50 [4, 9]: > 10 µM

Compound: O=C(Nc1cnn(Cc2c(Cl)cccc2Cl)c1)c1nnc(-c2ccccn2)s1 [Compound 145, N-(1-(2,6-dichlorobenzyl)-1H-pyrazol-4-yl)-5-(pyridin-2-yl)-1,3,4-thiadiazole-2-carboxamide]
inhibition at 1 µM [4, 8]: < 25%
IC50 [4, 9]: > 10 µM

More lines, main results first:

IC50 [4, 9]: > 10 µM
Compound: O=C(Nc1cnn(Cc2c(Cl)cccc2Cl)c1)c1cc(-c2ccccn2)on1 [Compound 146, N-(1-(2,6-dichlorobenzyl)-1H-pyrazol-4-yl)-5-(pyridin-2-yl)isoxazole-3-carboxamide]
inhibition at 1 µM [4, 8]: < 25%

IC50 [4, 9]: > 10 µM
Compound: O=C(Nc1cnn(Cc2c(Cl)cccc2Cl)c1)c1cnc(-c2ccco2)s1 [Compound 147, N-(1-(2,6-dichlorobenzyl)-1H-pyrazol-4-yl)-2-(furan-2-yl)thiazole-5-carboxamide]
inhibition at 1 µM [4, 8]: < 25%

IC50 [4, 9]: > 10 µM
Compound: O=C(Nc1cnn(Cc2c(Cl)cccc2Cl)c1)c1nnc(-c2ccco2)s1 [Compound 148, N-(1-(2,6-dichlorobenzyl)-1H-pyrazol-4-yl)-5-(furan-2-yl)-1,3,4-thiadiazole-2-carboxamide]
inhibition at 1 µM [4, 8]: < 25%

IC50 [4, 9]: > 10 µM
Compound: O=C(Nc1cnn([C@@H]2CCc3ccccc32)c1)c1cc(-c2ccco2)on1 [Compound 149, (R)—N-(1-(2,3-dihydro-1H-inden-1-yl)-1H-pyrazol-4-yl)-5-(furan-2-yl)isoxazole-3-carboxamide]
inhibition at 1 µM [4, 8]: < 25%

IC50 [4, 9]: > 10 µM
Compound: O=C(Nc1cnn([C@H]2CCc3ccccc32)c1)c1cc(-c2ccco2)on1 [Compound 150, (S)—N-(1-(2,3-dihydro-1H-inden-1-yl)-1H-pyrazol-4-yl)-5-(furan-2-yl)isoxazole-3-carboxamide]
inhibition at 1 µM [4, 8]: < 25%

IC50 [4, 9]: > 10 µM
Compound: O=C(Nc1cnn(Cc2ccc(C(F)(F)F)cc2C(F)(F)F)c1)c1nnc(-c2ccccn2)o1 [Compound 151, N-(1-(2,4-bis(trifluoromethyl)benzyl)-1H-pyrazol-4-yl)-5-(pyridin-2-yl)-1,3,4-oxadiazole-2-carboxamide]
inhibition at 1 µM [4, 8]: < 25%

IC50 ([4]; Homo sapiens, U2OS, read-out: IC50 ATF6-Luc reporter [μM], dose-response 30 μM to 1 nM): > 10 µM
Compound: C[C@@H](c1ccc(C(F)(F)F)cc1C(F)(F)F)n1cc(NC(=O)c2nnc(-c3cnccn3)s2)cn1 [Compound 153]
inhibition at 1 µM ([4]; Homo sapiens, U2OS, read-out: Inh. ATF6-Luc @ 1 μM [%], 1 μM test compound): < 25%

IC50 [4, 9]: < 1 µM
Compound: C[C@H](c1ccc(C(F)(F)F)cc1C(F)(F)F)n1cc(NC(=O)c2nnc(-c3ccncn3)s2)cn1 [Compound 156, (R)—N-(1-(1-(2,4-bis(trifluoromethyl)phenyl)ethyl)-1H-pyrazol-4-yl)-5-(pyrimidin-4-yl)-1,3,4-thiadiazole-2-carboxamide]
inhibition at 1 µM [4, 8]: 25 to 50%

IC50 [4, 9]: > 10 µM
Compound: C[C@@H](c1ccc(C(F)(F)F)cc1C(F)(F)F)n1cc(NC(=O)c2nnc(-c3ccncn3)s2)cn1 [Compound 157, (S)—N-(1-(1-(2,4-bis(trifluoromethyl)phenyl)ethyl)-1H-pyrazol-4-yl)-5-(pyrimidin-4-yl)-1,3,4-thiadiazole-2-carboxamide]
inhibition at 1 µM [4, 8]: < 25%

IC50 [4, 9]: > 10 µM
Compound: C[C@H](c1ccc(C(F)(F)F)cc1C(F)(F)F)n1cc(NC(=O)c2nnc(-c3ccco3)s2)cn1 [Compound 160, (R)—N-(1-(1-(2,4-bis(trifluoromethyl)phenyl)ethyl)-1H-pyrazol-4-yl)-5-(furan-2-yl)-1,3,4-thiadiazole-2-carboxamide]
inhibition at 1 µM [4, 8]: < 25%

IC50 [4, 9]: < 1 µM
Compound: C[C@@H](c1ccc(C(F)(F)F)cc1C(F)(F)F)n1cc(NC(=O)c2nnc(-c3ccco3)s2)cn1 [Compound 161, (S)—N-(1-(1-(2,4-bis(trifluoromethyl)phenyl)ethyl)-1H-pyrazol-4-yl)-5-(furan-2-yl)-1,3,4-thiadiazole-2-carboxamide]
inhibition at 1 µM [4, 8]: 25 to 50%

Inh. ATF6-Luc @ 1 μM [%] ([4]; 1 μM test compound): + (+ refers to <25% inhibition at 1 μM)
IC50 [4, 12]: > 10 µM
Compound: Ceapin-A4 [reference compound]

Inh. ATF6-Luc @ 1 μM [%] ([4]; 1 μM test compound): + (+ refers to <25% inhibition at 1 μM)
IC50 [4, 12]: > 10 µM
Compound: Ceapin-A8 [reference compound]
